Test results: ChEMBL document CHEMBL4431301, “The Medicinal Chemistry of Dengue Virus” (J Med Chem, 2016)
Blank lines part the entries; values can stand above or below the compound they belong to.

What was measured:
dengue virus type 2 [1] = assay: Antiviral activity against Dengue virus 2 NGC infected in HeLa cells assessed as reduction in viral RNA replication after 48 hrs by luciferase assay; format: functional, organism-based
dengue virus type 1 [2] = assay: Antiviral activity against Dengue virus 1 West Pacific infected in human A549 cells assessed as reduction in viral titer after 48 hrs by plaque assay; format: functional, organism-based; conditions: A549, 48 h
dengue virus type 2 [3] = assay: Antiviral activity against Dengue virus 2 NGC infected in human A549 cells assessed as reduction in viral titer after 48 hrs by plaque assay; format: functional, organism-based; conditions: A549, 48 h
dengue virus type 3 [4] = assay: Antiviral activity against Dengue virus 3 34640 infected in human A549 cells assessed as reduction in viral titer after 48 hrs by plaque assay; format: functional, organism-based; conditions: Dengue virus, 34640, A549, 48 h
dengue virus type 4 [5] = assay: Antiviral activity against Dengue virus 4 22713 infected in BHK21 cells assessed as reduction in viral titer after 48 hrs by plaque assay; format: functional, organism-based; conditions: Dengue virus, 22713, BHK-21, 48 h
dengue virus type 2 [6] = assay: Antiviral activity against Dengue virus 2 PL046 infected in human A549 cells by immunofluorescence analysis; format: functional, organism-based
dengue virus type 2 [7] = assay: Antiviral activity against Dengue virus 2 PL046 infected in […] Hepa1-6 cells by immunofluorescence analysis; format: functional, organism-based; conditions: PL046, Hepa1-6
dengue virus type 2 [8] = assay: Antiviral activity against Dengue virus 2 PL046 infected in human WS1 cells by immunofluorescence analysis; format: functional, organism-based
dengue virus type 2 [9] = assay: Antiviral activity against Dengue virus 2 PL046 infected in mouse J774A.1 cells by immunofluorescence analysis; format: functional, organism-based; conditions: PL046, J774.A1
[10] = Inhibition of Dengue virus 2 16681 NS5 guanylation expressed in Escherichia coliBL21(DE3) cells after 4 hrs by coomassie blue staining based SDS-PAGE method; design: species or system dengue virus type 2
dengue virus type 2 [11] = assay: Antiviral activity against Dengue virus 2 infected in BHK-pD2hRucPac cells assessed as reduction in virus replication after 72 hrs by renilla luciferase reporter gene assay; format: functional, organism-based
dengue virus type 2 [12] = assay: Antiviral activity against Dengue virus 2 Taiwanese PL046 infected in BHK21 cells after 48 hrs by plaque assay; format: functional, organism-based; conditions: Taiwanese PL046, BHK-21, 48 h
dengue virus type 2 [13] = assay: Antiviral activity against Dengue virus 2 NGC infected in african green monkey Vero cells assessed as reduction in viral titer preincubated for 1 hr followed by viral infection measured after 5 days by immunoplaque assay; format: functional, organism-based
dengue virus type 2 [14] = assay: Antiviral activity against Dengue virus 2 S221 infected in ADE AG129 mouse model assessed as protection against viral infection at 20 to 100 mg/kg, po administered thrice daily for 7 days starting 1 hr prior to viral challenge measured for 10 days; format: functional
dengue virus type 1 [15] = assay: Antiviral activity against Dengue virus 1 2402 infected in BHK21 cells after 48 hrs by CFI assay; format: functional, organism-based; conditions: Dengue virus, 2402, BHK-21, 48 h
dengue virus type 2 [16] = assay: Antiviral activity against Dengue virus 2 3295 infected in BHK21 cells after 48 hrs by CFI assay; format: functional, organism-based; conditions: Dengue virus, 3295, BHK-21, 48 h
dengue virus type 3 [17] = assay: Antiviral activity against Dengue virus 3 863 infected in BHK21 cells after 48 hrs by CFI assay; format: functional, organism-based; conditions: Dengue virus, 863, BHK-21, 48 h
dengue virus type 4 [18] = assay: Antiviral activity against Dengue virus 4 2270 infected in BHK21 cells after 48 hrs by CFI assay; format: functional, organism-based; conditions: Dengue virus, 2270, BHK-21, 48 h
[19] = Inhibition of biotinylated Imp-alpha/beta1 (unknown origin) binding to Dengue virus NS5 by alpha screen assay; design: species or system Homo sapiens
dengue virus type 1 [20] = assay: Antiviral activity against Dengue virus 1 infected in human PBMC assessed as reduction in viral titer after 48 hrs preincubated with cells prior to ADE-mediated viral infection by plaque assay; format: functional, organism-based
dengue virus type 1 [21] = assay: Antiviral activity against Dengue virus 1 infected in human Huh7 cells assessed as reduction in viral replication after 48 hrs by plaque assay; format: functional, organism-based; conditions: Huh-7, 48 h
dengue virus type 4 [22] = assay: Antiviral activity against Dengue virus 4 infected in human Huh7 cells assessed as reduction in viral replication after 48 hrs by plaque assay; format: functional, organism-based; conditions: Huh-7, 48 h
dengue virus type 2 [23] = assay: Antiviral activity against Dengue virus 2 infected in human Huh7 cells assessed as reduction in viral replication after 48 hrs by plaque assay; format: functional, organism-based; conditions: Huh-7, 48 h
dengue virus type 3 [24] = assay: Antiviral activity against Dengue virus 3 infected in human Huh7 cells assessed as reduction in viral replication after 48 hrs by plaque assay; format: functional, organism-based; conditions: Huh-7, 48 h
[25] = Inhibition of yeast alpha-glucosidase by double reciprocal plot method; design: species or system Saccharomyces cerevisiae

Compound: CC(C)(C)c1ccc(/C=C2\SC(=S)N(CCC(=O)O)C2=O)cc1
IC50 [10]: 7.3 µM
EC50 (dengue virus type 2 [11]): 30.8 µM

Compound: OC[C@@H]1[C@@H](O)[C@H](O)[C@@H](O)CN1CCCCCCCCC1CCCO1 (stereo not given in full)
EC50 (dengue virus type 2 [13]): 21.7 µM
Activity (dengue virus type 2 [14]): 100%

Compound: CCCC(=O)O[C@H]1CN2CC[C@H](O)[C@@H]2[C@@H](O)[C@@H]1O [CELGOSIVIR]
EC50 (dengue virus type 1 [15]): 0.22 to 0.68 µM
EC50 (dengue virus type 2 [16]): 0.2 µM
EC50 (dengue virus type 3 [17]): 0.22 to 0.68 µM
EC50 (dengue virus type 4 [18]): 0.22 to 0.68 µM

Compound: CC1=C(/C=C/C(C)=C/C=C/C(C)=C/C(=O)Nc2ccc(O)cc2)C(C)(C)CCC1 [FENRETINIDE]
IC50 [19]: 1 to 1.5 µM
EC50 (dengue virus type 1 [20]): 0.8 to 2.6 µM

Compound: CC(=O)O[C@H]1C[C@H](O[C@H]2[C@@H](O)C[C@H](O[C@H]3[C@@H](O)C[C@H](O[C@H]4CC[C@@]5(C)[C@H](CC[C@@H]6[C@@H]5C[C@@H](O)[C@]5(C)[C@@H](C7=CC(=O)OC7)CC[C@]65O)C4)O[C@@H]3C)O[C@@H]2C)O[C@H](C)[C@H]1O[C@@H]1O[C@H](CO)[C@@H](O)[C@H](O)[C@H]1O [LANATOSIDE C]
IC50 (dengue virus type 1 [21]): 0.5 to 1 µM
IC50 (dengue virus type 4 [22]): 0.5 to 1 µM
IC50 (dengue virus type 2 [23]): 0.5 to 1 µM
IC50 (dengue virus type 3 [24]): 0.5 to 1 µM

Compound: O=C(NC[C@H]1N[C@H](CO)[C@@H](O)[C@@H]1O)C1Cc2ccccc21 (stereo not given in full)
Ki [25]: 0.053 µM

Continued, in another order:

EC50 (dengue virus type 2 [1]): 1.9 µM
Compound: O=C1C[C@]2(C(=O)Nc3ccc(Cl)cc32)c2cnn(Cc3ccc(Cl)cc3)c2N1
EC50 (dengue virus type 1 [2]): > 20 µM
EC50 (dengue virus type 2 [3]): 0.01 to 0.08 µM
EC50 (dengue virus type 3 [4]): 0.01 to 0.08 µM
EC50 (dengue virus type 4 [5]): > 20 µM

IC50 (dengue virus type 2 [6]): 9.7 to 12.9 µM
IC50 (dengue virus type 2 [7]): 9.7 to 12.9 µM
IC50 (dengue virus type 2 [8]): 9.7 to 12.9 µM
IC50 (dengue virus type 2 [9]): 9.7 to 12.9 µM
Compound: CCN(CCO)CCCC(C)Nc1ccnc2cc(Cl)ccc12 (stereo not given) [HYDROXYCHLOROQUINE]

EC50 (dengue virus type 2 [12]): 4.7 µM
Compound: CCCCCCCCCCN1[C@H](CO)[C@@H](O)[C@H](O)[C@H]1CNC(=O)C1Cc2ccccc21 (stereo not given in full)
